Test results: publication PMC4521925, “17β-Hydroxysteroid Dehydrogenase Type 2 Inhibition: Discovery of Selective and Metabolically Stable Compounds Inhibiting Both the Human Enzyme and Its Murine Ortholog” (PLoS ONE, 2015)
Like-named read-outs stand apart in the source and are kept apart here.

How the values were obtained:
[1] = target: T1, m17β-HSD2 (Mus musculus, UniProt P51658); assay: Inhibition of m17β-HSD2 in cell-free assay; assay type: biochemical; conditions: for % inh. at 1 μM m17β-HSD2: mouse liver microsomal fraction, substrate E2 [500 nM], cofactor NAD+ [1500 μM], Table 1
T1 construct: The microsomal fraction (m17β-HSD2) was obtained from mouse liver as described for h17β-HSD2; tissue Pharmacelsus GmbH (mouse livers); host or cells: mouse liver, microsomal fraction
T1 sequence (P51658 1-381): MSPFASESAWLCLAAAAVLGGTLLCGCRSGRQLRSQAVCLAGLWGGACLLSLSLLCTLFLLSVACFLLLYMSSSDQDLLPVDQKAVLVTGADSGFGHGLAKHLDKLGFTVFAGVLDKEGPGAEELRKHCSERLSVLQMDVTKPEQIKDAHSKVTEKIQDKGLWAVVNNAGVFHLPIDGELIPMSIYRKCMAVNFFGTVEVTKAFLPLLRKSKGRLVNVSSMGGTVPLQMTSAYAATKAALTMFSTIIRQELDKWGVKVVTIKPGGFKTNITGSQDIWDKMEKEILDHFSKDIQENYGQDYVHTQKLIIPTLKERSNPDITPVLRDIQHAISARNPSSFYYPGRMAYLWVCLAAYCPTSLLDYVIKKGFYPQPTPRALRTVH
Procedure: (§1) h17β-HSD2, h17β-HSD1, m17β-HSD2 and m17β-HSD1 cell-free assays were performed similarly, by incubating enzyme, tritiated substrate, cofactor and inhibitor, according to described procedures.
The microsomal fraction (m17β-HSD2) was obtained from mouse liver as described for h17β-HSD2. Inhibitory activities were evaluated by a method identical to the one described for the human enzyme.
(§2) Inhibitory activities were evaluated following an established method with minor modifications. Briefly, the enzyme preparation was incubated with NAD^+ [1500 μM] in the presence of potential inhibitors at 37C in a phosphate buffer (50 mM) supplemented with 20% of glycerol and EDTA 1mM. Inhibitor stock solutions were prepared in DMSO. Final concentration of DMSO was adjusted to 1% in all samples. […] After 20 min, the incubation was stopped with HgCl2 and the mixture was extracted with ether. After evaporation, the steroids were dissolved in acetonitrile/water (45:55). […] Detection and quantification of the steroids were performed using a radioflow detector (Berthold Technologies, Bad Wildbad). […] Each value was calculated from at least two independent experiments.

[2] = target: T2, h17β-HSD2 (Homo sapiens, UniProt P37059); set-up: from tissue; host or cells: human placenta, microsomal fraction; conditions: human placental microsomal fraction, substrate E2 [500 nM], cofactor NAD+ [1500 μM]; previously described inhibitors; cited from earlier work
T2 sequence (P37059 1-387): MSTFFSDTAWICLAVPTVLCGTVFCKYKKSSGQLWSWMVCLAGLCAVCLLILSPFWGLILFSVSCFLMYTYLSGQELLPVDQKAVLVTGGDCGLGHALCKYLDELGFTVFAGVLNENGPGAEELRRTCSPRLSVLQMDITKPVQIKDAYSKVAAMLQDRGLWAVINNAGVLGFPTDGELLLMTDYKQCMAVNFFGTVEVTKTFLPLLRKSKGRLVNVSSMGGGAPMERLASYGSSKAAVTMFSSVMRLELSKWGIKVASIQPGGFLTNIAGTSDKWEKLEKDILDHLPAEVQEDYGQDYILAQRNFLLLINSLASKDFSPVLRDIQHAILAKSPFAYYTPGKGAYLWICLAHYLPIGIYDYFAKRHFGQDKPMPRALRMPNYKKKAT

[3] = Metabolic stability in a cell-free assay (liver S9 fraction); assay type: in vitro ADME; conditions: pooled liver S9 fraction; human liver S9 fraction 1 mg/ml, NADPH regenerating system, UDPGA, PAPS, 37°C; inhibitor 1 μM; read-out: Inhibitor t1/2
Procedure: Compounds 7a, 8a, 16a, 19a, 22a, 27a and 27 were tested according to established method[33–35]For evaluation of phase I and II metabolic stability 1 μM compound was incubated with 1 mg/ml pooled mammalian liver S9 fraction (BD Gentest), 2 mM NADPH regenerating system, 1 mM UDPGA and 0.1 mM PAPS at 37°C for 0, 5, 15 and 60 minutes at a final volume of 100 μL. The incubation was stopped by precipitation of S9 enzymes with 2 volumes of cold acetonitrile containing internal standard. Concentration of the remaining test compound at the different time points was analyzed by LC-MS/MS and used to determine half-life (t1/2).

[4] = target: T3, ERα (Homo sapiens, UniProt P03372); assay: Estrogen receptor affinity in a cell-free assay (ERα); assay type: binding; conditions: 1000-fold excess relative to E2; recombinant human ERα
T3 sequence (P03372 1-595): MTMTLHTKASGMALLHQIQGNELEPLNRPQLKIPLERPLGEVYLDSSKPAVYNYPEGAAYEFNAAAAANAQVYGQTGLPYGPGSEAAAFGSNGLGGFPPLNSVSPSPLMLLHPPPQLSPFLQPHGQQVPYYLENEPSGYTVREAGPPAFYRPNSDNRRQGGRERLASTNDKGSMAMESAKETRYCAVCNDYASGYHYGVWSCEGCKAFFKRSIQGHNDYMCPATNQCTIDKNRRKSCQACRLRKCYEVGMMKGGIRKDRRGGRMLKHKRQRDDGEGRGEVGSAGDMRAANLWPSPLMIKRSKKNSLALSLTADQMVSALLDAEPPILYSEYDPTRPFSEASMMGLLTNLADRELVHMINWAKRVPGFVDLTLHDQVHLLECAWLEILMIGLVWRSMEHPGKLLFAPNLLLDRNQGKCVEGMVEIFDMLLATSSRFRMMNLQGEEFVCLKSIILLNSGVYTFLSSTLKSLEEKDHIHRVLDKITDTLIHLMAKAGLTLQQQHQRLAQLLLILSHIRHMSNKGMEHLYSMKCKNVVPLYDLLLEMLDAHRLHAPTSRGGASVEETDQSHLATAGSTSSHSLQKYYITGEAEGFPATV
Procedure: (§3) The binding affinity of selected compounds to ERα and ERβ was determined according to the recommendations of the US Environmental Protection Agency (EPA) by their Endocrine Disruptor Screening Program (EDSP)[24] using recombinant human proteins.
(§4) The potential inhibitors were dissolved in DMSO (5% final concentration). […] After incubation, ligand-receptor complexes were selectively bound to hydroxyapatite (83.5 g/LinTE-buffer). The bound complex was washed three times and resuspended in ethanol. For radiodetection, scintillator cocktail (Quickszint 212, Zinsser Analytic, Frankfurt) was added and samples were measured in a liquid scintillation counter (1450 LSC & Luminescence Counter, Perkin Elmer).
(§5) After the assay was established and validated, a modification was made to increase throughput.

[5] = target: T4, h17β-HSD1 (Homo sapiens, UniProt P14061); assay: Inhibition of h17β-HSD1 in cell-free assay; assay type: biochemical; conditions: human placental cytosolic fraction, substrate E1 [500 nM], cofactor NADH [500 μM]
T4 construct: h17β-HSD1 was obtained after precipitation with ammonium sulfate from the cytosolic fraction; from tissue; host or cells: human placenta, cytosolic fraction
T4 sequence (P14061 1-328): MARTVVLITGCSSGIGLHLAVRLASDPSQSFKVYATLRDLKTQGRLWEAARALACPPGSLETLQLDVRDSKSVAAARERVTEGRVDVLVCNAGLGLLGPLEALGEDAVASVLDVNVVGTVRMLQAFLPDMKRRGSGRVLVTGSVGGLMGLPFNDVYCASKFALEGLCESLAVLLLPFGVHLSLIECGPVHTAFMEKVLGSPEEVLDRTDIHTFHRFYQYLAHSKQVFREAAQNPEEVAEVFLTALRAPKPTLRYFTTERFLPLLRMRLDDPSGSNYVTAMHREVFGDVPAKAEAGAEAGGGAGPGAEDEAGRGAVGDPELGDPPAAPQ
Procedure: as §1
(§6) Cytosolic (h17β-HSD1) and microsomal (h17β-HSD2) fractions were obtained from human placenta according to previously described procedures. Fresh tissue was homogenized and the enzymes were separated from the mitochondria, cell membrane. Nucleus and other rests by fractional centrifugation at 1000 g, 10.000 g and 150.000 g. The pellet fraction containing the microsomal h17β-HSD2 was used for the determination of h17β-HSD2 inhibition, while h17β-HSD1 was obtained after precipitation with ammonium sulfate from the cytosolic fraction for use of testing of h17β-HSD1 inhibition. Aliquots containing h17β-HSD1 or h17β-HSD2 were stored frozen.
The 17β-HSD1 inhibition assay was performed similarly to the h17β-HSD2 test. The human cytosolic enzyme was incubated with NADH [500 μM] while the mouse recombinant enzyme was reacted with NADPH [500 μM].Test compound and a mixture of unlabelled- and [^3H]-E1 (final concentration: 500 nM, 0.15 μCi) were added and mixed for 10 min at 37°C. Further treatment of the samples and HPLC separation was carried out as mentioned above for h17β-HSD2.

[6] = target: ERβ (Homo sapiens, UniProt Q92731); assay: Estrogen receptor affinity in a cell-free assay (ERβ); assay type: binding; conditions: 1000-fold excess relative to E2; recombinant human ERβ
ERβ, sequence (Q92731 whole entry): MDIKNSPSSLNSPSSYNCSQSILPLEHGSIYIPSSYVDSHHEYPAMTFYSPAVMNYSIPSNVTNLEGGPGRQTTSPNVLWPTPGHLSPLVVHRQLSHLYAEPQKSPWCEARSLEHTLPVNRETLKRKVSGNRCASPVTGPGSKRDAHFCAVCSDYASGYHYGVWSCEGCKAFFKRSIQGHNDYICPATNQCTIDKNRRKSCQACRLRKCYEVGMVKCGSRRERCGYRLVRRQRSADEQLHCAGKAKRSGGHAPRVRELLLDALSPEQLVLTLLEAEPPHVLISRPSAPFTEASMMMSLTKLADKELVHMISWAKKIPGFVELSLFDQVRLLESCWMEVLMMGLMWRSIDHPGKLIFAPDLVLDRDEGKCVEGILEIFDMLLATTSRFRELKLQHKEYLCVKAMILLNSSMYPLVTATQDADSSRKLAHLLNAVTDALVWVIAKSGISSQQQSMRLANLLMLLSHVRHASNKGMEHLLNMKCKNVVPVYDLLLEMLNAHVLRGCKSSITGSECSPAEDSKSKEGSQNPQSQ
Procedure: as §3, §4, §5

[7] = target: T2, h17β-HSD2; assay: Inhibition of h17β-HSD2 in cell-free assay; assay type: biochemical; set-up: from tissue; host or cells: human placenta, microsomal fraction
Procedure: as §1, §6, §2

Compound	% inh. at 1 μM m17β-HSD2 [1] [%]	IC50 [2] [nM]	further results
COc1cccc(N(C)C(=O)c2ccc(-c3cccc(OC)c3F)s2)c1 [Compound 1j]	26	62	
CN(Cc1cccc(O)c1)C(=O)c1cccc(-c2cccc(O)c2)c1 [Compound 4e]	29	640	
COc1cccc(CN(C)C(=O)c2ccc(-c3cccc(C)c3F)cc2)c1 [Compound 25a, 2'-Fluoro-N-(3-methoxybenzyl)-N,3'-dimethyl-[1,1'-biphenyl]-4-carboxamide]			inhibition at 1 µM ([1]; read-out: % inh. at 1 μM m17β-HSD2): 43%; half-life at 1 μM [3]: 1.72 h; displacement of E2 from ERα [4]: ≤ 20%; IC50 [5]: 87000 nM; displacement of E2 from ERβ [6]: ≤ 20%; IC50 [7]: 310 nM; s.f. (selectivity factor) = IC50(17β-HSD1)/IC50(17β-HSD2) ([7]; human enzymes, cell-free): 283

Second part, led by results:

% inh. at 1 μM m17β-HSD2 [1] [%]	Compound	IC50 [2] [nM]	further results
40	COc1cccc(N(C)C(=O)c2ccc(-c3cccc(N(C)C)c3)s2)c1 [Compound 1g]	170	
25	COc1cccc(-c2cccc(C(=O)N(C)c3cccc(OC)c3)c2)c1 [Compound 4a]	520	
